According to a compilation of properties of binary mixtures (doi:10.1021/je300093r):

Experiment: xn = mol fraction of the nth substance listed
Conditions: 101 kPa

CCCC[n+]1ccccc1.O=S(=O)([N-]S(=O)(=O)C(F)(F)F)C(F)(F)F + CCCC[n+]1ccccc1.F[B-](F)(F)F
viscosity [mPa·s]
Conditions | 303.15 K | 313.15 K | 323.15 K | 333.15 K | 343.15 K | 353.15 K
x1 = 0.0442 | 115.3 | 70.5 | 46.1 | 31.9 | 22.9 | 17.1
x1 = 0.1119 | 105 | 66.2 | 43.8 | 30.4 | – | –
x1 = 0.2162 | – | 57.6 | 38.6 | 27.3 | – | 15.2
x1 = 0.3217 | 82.6 | 53.1 | 35.7 | 25.5 | 18.7 | 14.4
x1 = 0.4327 | 75.7 | – | 33.3 | 23.8 | 17.6 | –
x1 = 0.5429 | 70.2 | – | 31.8 | 23.1 | 17.3 | –
x1 = 0.6523 | 63.1 | – | 29.8 | – | 16.4 | 12.8
x1 = 0.7643 | – | 39.1 | 27.7 | 20.5 | 15.5 | 12.1
x1 = 0.8822 | 54.1 | – | 25.8 | 19.2 | – | 11.5
x1 = 0.9467 | 52 | 35 | 25 | 18.5 | 14.1 | 11.1
x1 = 1 | 49.4 | 33.8 | – | 17.9 | 13.7 | –

CCCC[n+]1ccccc1.F[B-](F)(F)F + CCCC[n+]1ccccc1.O=S(=O)([N-]S(=O)(=O)C(F)(F)F)C(F)(F)F
x2 = 0
Conditions | viscosity [mPa·s]
313.15 K | 74.8
323.15 K | 48.1
333.15 K | 33
343.15 K | 23.8
